Results from US12195468B2, “TLR7 agonist for treating colorectal cancer and pharmaceutical combination thereof” (CHIA TAI TIANQING PHARMACEUTICAL GROUP CO., LTD., priority 2018, dated 2025).

Test system: MC-38 colon cancer
Assay: Anti-tumor experiment in MC-38 mouse model (subcutaneous xenograft tumor of MC-38 colon cancer in mice)
Type: in vivo
Conditions: for TV (mm^3) on day 0 Mean ± SD: day 0 (baseline at grouping); for TV (mm^3) on day 0 Mean ± SD / TV (mm^3) on day 12 Mean ± SD / TV (mm^3) on day 18 Mean ± SD: female C57BL/6 mice; for TV (mm^3) on day 0 Mean ± SD / TV (mm^3) on day 12 Mean ± SD / TV (mm^3) on day 18 Mean ± SD / TGI (%): i.g., anlotinib 1 mg/kg qd, TLR7 agonist 20 mg/kg tiw, 2 w; for TGI (%): tumor growth inhibition from tumor weight vs control group at end of experiment
Protocol: In Example 1, the TLR7 agonist is selected from
[drawing 58] and anlotinib is selected fromanlotinib dihydrochloride.
The MC-38 is a colon cancer cell of mouse from Jiangsu Cyto Biotechnology Co., Ltd.
Subcutaneously grafted tumor cells of MC-38 colon cancer (concentration: 2×10^6/mL×0.2 mL/mouse) were inoculated into female C57BL/6 mice at the right side armpit (the site to be inoculated was shaved before inoculating) in a sterile environment, and passaged using a block insertion method. The C57BL/6 mice were 16-18 g in weight, and the breeding environment was SPF level. The diameter of the C57BL/6 xenograft tumor was measured using a vernier caliper, and the mice were randomized into 4 groups when the tumors grew to 100-300 mm^3 (12 mice for control group and 6 mice each for other groups): • i. Control group (blank control); • ii. Monotherapy group: anlotinib, with normal saline as vehicle; • iii. Monotherapy group: TLR7 agonist, with ethanol+tween 80+normal saline (v:v:v=5:5:90) as vehicle; • iv.
The administration method of the combination therapy group is consistent with that of the monotherapy group.
Weights and diameter of the tumor were measured every three days, and the behavior of mice was observed daily. After the experiment was completed, the tumors were removed, weighed and photographed.
The tumor volume and the tumor growth inhibition were calculated using the following formulas: Tumor volume (TV)=(L×W^2)/2.
The TGI (%), as a value of efficacy, was substituted into the Jin zhengjun's formula q=Eab/(Ea+Eb−Ea×Eb), where Ea and Eb represent the efficacy of medicaments used alone, and Eab represents the efficacy of combined use.

SMILES	TV (mm^3) on day 0 Mean ± SD [mm^3]	TV (mm^3) on day 12 Mean ± SD [mm^3]	TV (mm^3) on day 18 Mean ± SD [mm^3]	effect on growth of MC-38 tumor (in words) (summary of Table 2)	TGI (%)
CCCCOc1nc(N)c2[nH]cc(Cc3ccc(CN4CCCC4)cc3)c2n1 [TLR7 agonist]	143.93 ± 47.74	427.88 ± 161.31	747.63 ± 347.13	can inhibit the growth of MC-38 tumor	39
COc1cc2c(Oc3ccc4[nH]c(C)cc4c3F)ccnc2cc1OCC1(N)CC1 [anlotinib, 1-[[[4-(4-fluoro-2-methyl-1H-indol-5-yl)oxy-6-methoxyquinolin-7-yl]oxy]methyl]cyclopropylamine, reference compound]	143.28 ± 45.46	427.30 ± 135.63	900.32 ± 346.06		33
